# In ChEMBL document CHEMBL1141643, “Synthesis and SAR of novel 1,1-dialkyl-2(1H)-naphthalenones as potent HCV polymerase inhibitors” (Bioorg Med Chem Lett, 2008):
# Columns and labels:
# Hepatitis C virus = assay: Inhibition of HCV 1a replication by cell based assay; format: functional, organism-based, Hepacivirus hominis
# [1] = Inhibition of HCV 1a RNA dependent RNA polymerase; design: species or system Hepacivirus hominis
Structure (SMILES),EC50 (Hepatitis C virus) [nM],IC50 [1] [nM]
CC1(CC2CCCCC2)C(=O)C(C2=NS(=O)(=O)c3cc(NS(C)(=O)=O)ccc3N2)=C(O)c2ccccc21 (stereo not given),121,13
CCC1(CCC(C)C)C(=O)C(C2=NS(=O)(=O)c3cc(NS(C)(=O)=O)ccc3N2)=C(O)c2ccccc21 (stereo not given),49,17
CCCC1(C)C(=O)C(C2=NS(=O)(=O)c3cc(NS(C)(=O)=O)ccc3N2)=C(O)c2ccccc21 (stereo not given),,20
CC1(CCCC2CCCCC2)C(=O)C(C2=NS(=O)(=O)c3cc(NS(C)(=O)=O)ccc3N2)=C(O)c2ccccc21 (stereo not given),,791
CCCCC1(C)C(=O)C(C2=NS(=O)(=O)c3cc(NS(C)(=O)=O)ccc3N2)=C(O)c2ccccc21 (stereo not given),52,15
CC(C)CCC1(C)C(=O)C(C2=NS(=O)(=O)c3cc(NS(C)(=O)=O)ccc3N2)=C(O)c2ccccc21 (stereo not given),38,7
CC(C)(C)CCCCC1(C)C(=O)C(C2=NS(=O)(=O)c3cc(NS(C)(=O)=O)ccc3N2)=C(O)c2ccccc21 (stereo not given),,138
CC(C)(C)CCC1(C)C(=O)C(C2=NS(=O)(=O)c3cc(NS(C)(=O)=O)ccc3N2)=C(O)c2ccccc21 (stereo not given),8,10
CCCC1(CCC)C(=O)C(C2=NS(=O)(=O)c3cc(NS(C)(=O)=O)ccc3N2)=C(O)c2ccccc21,603,99
